In patent US4621073A, “Cyclic peptides having somatostatin activity” (Hoechst Aktiengesellschaft, priority 1983, dated 1986):
Non-standard residues stand in square brackets, D forms with d. Residues, ends and D or L forms follow the SMILES beside them.

What was measured:
[1] = tested on: blood glucose; test: potentiation of the hypoglycemic effect of insulin in adrenalectomized rats; format: in vivo, rat
[2] = tested on: gastric acid; test: reduction of gastric acid after intravenous administration to the rat; format: in vivo; settings: i.v. dose of 30 μg/kg
Method: The peptides according to the invention have the inhibitory properties of somatostatin, but their duration of action is considerably longer at lower doses. For example, after intravenous administration to the rat, these peptides reduce gastric acid with an ED50 of about 5 μg/kg. The reduction in gastric acid is maintained for 2 hours. […] A reduction in gastric acid is only brought about by infusing somatostatin. […] The new compounds can also be administered orally and intranasally. However, in these instances considerably higher doses are necessary because of the poorer absorption.

## C[C@@H](O)[C@@H]1NC(=O)[C@H](CCCCN)NC(=O)[C@@H](Cc2c[nH]c3ccccc23)NC(=O)[C@H](Cc2ccccc2)NC(=O)[C@@H]2CCCN2C(=O)[C@H](Cc2ccccc2)NC1=O [cyclo-(Pro-Phe-D-Trp-Lys-Thr-Phe)] (cyclo(PF[dW]KTF))
[1]; dose of as much as 0.318 μg/kg^-1. min^-1
  effect on blood glucose: completely ineffective

## C[C@H](N)C(=O)NCC(=O)N[C@H]1CSSC[C@@H](C(=O)O)NC(=O)[C@H](CO)NC(=O)[C@H]([C@@H](C)O)NC(=O)[C@H](Cc2ccccc2)NC(=O)[C@H]([C@@H](C)O)NC(=O)[C@H](CCCCN)NC(=O)[C@H](Cc2c[nH]c3ccccc23)NC(=O)[C@H](Cc2ccccc2)NC(=O)[C@H](Cc2ccccc2)NC(=O)[C@H](CC(N)=O)NC(=O)[C@H](CCCCN)NC1=O [somatostatin, Somatostatin]
[2]
  effect on gastric acid: no effect whatever

## cyclo-(Aoc-Phe-D-Trp-Lys-Val-Phe)
[1]
  potentiation of the hypoglycemic effect of insulin, effect relative to cyclo-(Pro-Phe-D-Trp-Lys-Thr-Phe): at least twice
[1]; dose of 0.07 μg/kg^-1.min^-1
  reduction of blood glucose: up to 24%
